How the values were obtained:
[1] = tested on: patients with advanced type 2 diabetes; experiment: Predicted effect of adding metformin as a third agent, based upon a meta-analysis of metformin clinical trials; format: in vivo, human; settings: metformin added as third agent to pioglitazone plus glimepiride
From the text: Patients having HbA1c levels greater than 7% have a high risk for developing cardiovascular disease and other complications of diabetes. Thus, in these patients, it is necessary to add a third agent to the regimen in order to obtain HbA1c values below 7%. Based upon a meta-analysis of metformin clinical trials, the addition of metformin as a third agent to this regimen will produce an additional reduction in HbA1c of about 1% and will contribute to adequate glycemic control in such patients with advanced type 2 diabetes. The addition of metformin in this triple therapy provides a synergistic mechanism of action, both improving insulin sensitivity and suppressing hepatic glucose output.

[2] = tested on: patients with type 2 diabetes mellitus; settings: monotherapy; Rosenstock et al., Diabetes Care 25:1529-1533 (2002); cited from earlier work
[3] = tested on: patients with type 2 diabetes; experiment: 12-week, double blind, randomized, parallel group, multi-center study of pioglitazone, glimepiride or their combination; format: in vivo, human; settings: after 12 weeks, pioglitazone 15 mg per day, glimepiride 2 mg per day, or both; for HbA1c levels, change from baseline: baseline HbA1c greater than 8%
Procedure: Objective: […] Research Design and Methods: The study was a 12-week, double blind, randomized, parallel group, multi-center study, with 120 patients randomized to receive pioglitazone (15 mg per day), glimepiride (2 mg per day), or a combination of pioglitazone plus glimepiride (15 mg per day; 2 mg per day). Patients started a strict dietary regimen 1 week before receiving the first dose of each treatment. The study was open to patients with type 2 diabetes mellitus and having HbA1c levels greater than 8%. Patients were over 30 years of age and have had diabetes for at least 1 year.

## CN(C)C(=N)N=C(N)N [metformin]
[1]
  additional reduction in HbA1c: about 1%

## CC(C)[C@H]1CC[C@H](C(=O)N[C@H](Cc2ccccc2)C(=O)O)CC1 [nateglinide]
[2]
  reduction in HbA1c: 0.6%

## CCc1ccc(CCOc2ccc(CC3SC(=O)NC3=O)cc2)nc1 (stereo not drawn) [pioglitazone]
[3]
  fasting blood glucose, decrease from baseline: -28 mg/dL
  HbA1c levels, change from baseline: −0.14%

## CCC1=C(C)CN(C(=O)NCCc2ccc(S(=O)(=O)NC(=O)N[C@H]3CC[C@H](C)CC3)cc2)C1=O [glimepiride]
[3]
  fasting blood glucose, decrease from baseline: -22 mg/dL
  HbA1c levels, change from baseline: −0.98%
